Measurements from publication PMC7168327, “Designed Antimicrobial Peptides for Topical Treatment of Antibiotic Resistant Acne Vulgaris” (Antibiotics, 2020).
≈ marks a conversion by molar mass, not a printed value. Bridge positions count the residues as written; N and C are the ends. Peptide text beside a SMILES is read from it.

Legend:
Type in all cases: cell-based, Cutibacterium acnes
C. acnes HL043PA2 = C. acnes HL043PA2 (multi-drug resistant); RCM broth, anaerobic, 1 × 10^6 CFU per mL, two-fold dilutions 0.5–32 μg/mL, 48 h, OD 600 nm; mean of three replicates
Method in brief: (§1)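 MIC by OD600nm after 48 h anaerobic incubation of 1 × 10^6 CFU per mL C. acnes with test article (0.5–32 μg per mL, two-fold steps) in RCM broth; three replicates per concentration.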

C. acnes HL038PA1 = conditions: C. acnes HL038PA1; RCM broth, anaerobic, 1 × 10^6 CFU per mL, two-fold dilutions 0.5–32 μg/mL, 48 h, OD 600 nm; mean of three replicates
Method in brief: as §1

C. acnes HL082PA2 = conditions: C. acnes HL082PA2; RCM broth, anaerobic, 1 × 10^6 CFU per mL, two-fold dilutions 0.5–32 μg/mL, 48 h, OD 600 nm; mean of three replicates
Method in brief: as §1

C. acnes HL043PA1 = conditions: C. acnes HL043PA1; RCM broth, anaerobic, 1 × 10^6 CFU per mL, two-fold dilutions 0.5–32 μg/mL, 48 h, OD 600 nm; mean of three replicates
Method in brief: as §1

C. acnes HL045PA1 = conditions: C. acnes HL045PA1; RCM broth, anaerobic, 1 × 10^6 CFU per mL, two-fold dilutions 0.5–32 μg/mL, 48 h, OD 600 nm; mean of three replicates
Method in brief: as §1

C. acnes ATCC6919 = conditions: C. acnes ATCC6919; RCM broth, anaerobic, 1 × 10^6 CFU per mL, two-fold dilutions 0.5–32 μg/mL, 48 h, OD 600 nm; mean of three replicates
Method in brief: as §1

CC[C@H](C)[C@@H]1NC(=O)CNC(=O)[C@H](CCCCN)NC(=O)[C@H](Cc2ccc(O)cc2)NC(=O)[C@@H]2CSSC[C@H](NC1=O)C(=O)N[C@@H](Cc1ccc(O)cc1)C(=O)N[C@@H](CCCCN)C(=O)N[C@@H](CCCCN)C(=O)N[C@H](C(=O)N[C@@H](CCCCN)C(N)=O)CSSC[C@H](NC(=O)[C@H](Cc1c[nH]c3ccccc13)NC(=O)[C@@H](N)CCCNC(=N)N)C(=O)N[C@@H](Cc1ccccc1)C(=O)N[C@@H](CCCCN)C(=O)N[C@@H](C(C)C)C(=O)N2 [RP556] (H-RWCFKVCYKGICYKKCK-NH2; disulfide 3-16, 7-12)
MIC (C. acnes HL043PA2): 4 µg/mL (≈ 1.86 µM)
MIC (C. acnes HL038PA1): 4 µg/mL (≈ 1.86 µM)
MIC (C. acnes HL082PA2): 2 µg/mL (≈ 0.929 µM)
MIC (C. acnes HL043PA1): 4 µg/mL (≈ 1.86 µM)
MIC (C. acnes HL045PA1): 4 µg/mL (≈ 1.86 µM)
MIC (C. acnes ATCC6919): 4 µg/mL (≈ 1.86 µM)
